# Measurements published in patent US11186577B2, “Vasopressin receptor antagonists and products and methods related thereto” (BlackThorn Therapeutics, Inc., priority 2017, dated 2021).
# pIC50: −log10 of the molar value.
# What was measured:
# [1] = target: human Arginine Vasopressin Receptor V2 (AVPR2) (Homo sapiens (Human), UniProt P30518); assay: Vasopressin V2 receptor antagonist assay (cAMP TR-FRET, 1321N1 cells); format: cell-based
# Description: The purpose of the assay was to determine the inhibitory effect of synthesized compounds on the Vasopressin receptor 2. […] Arginine Vasopressin (AVP) evokes an increase in intracellular cAMP in these cells which is measured in a TR-FRET assay using a Europium cAMP tracer and ULight labelled antibody reagents contained in a LANCE Ultra cAMP kit (Perkin Elmer #TRF0263). […] Test compounds were assessed for their ability to affect the magnitude of the response to AVP, with antagonists showing a concentration-dependent decrease in the AVP-mediated reduction in TR-FRET signal.
# cAMPZen V2 assay ready cells were thawed at 37° C. and resuspended directly from frozen in 9 ml growth medium consisting of DMEM supplemented with 10% v/v fetal bovine serum, 1× non-essential amino acids, and 1 mM sodium pyruvate. Cells were spun at 1000 rpm for 3 minutes and the supernatant was carefully removed and discarded. The pellet was resuspended in 5 ml stimulation buffer and the cell density determined using the Vi-Cell automated cell counter. The cell suspension was diluted to a 0.2×10^6/ml suspension ready for plating. […] Stimulation buffer consisted of HBSS (+Ca/+Mg) supplemented with 5 mM HEPES, 0.1% BSA stabiliser and 0.5 mM IBMX.
# At the start of each assay day the potency of AVP was assessed and an EC80 concentration determined for subsequent compound profiling. Assays were performed by first an addition of 2.5 μl of control or test compound at 4× final concentration in stimulation buffer followed by 2.5 μl of AVP at 4× final concentration in stimulation buffer. After a 1 hour reaction, detection reagents were added by first an addition of 5 μl EU-cAMP tracer, followed by 5 μl ULight-anti-cAMP both diluted as per the manufacturer's instructions. […] For compound profiling, test compounds were dispensed by the Labcyte Echo (10-point curve, 1:3 dilutions) in a target 0.1 μl volume then diluted 750-fold in stimulation buffer containing 3% DMSO prior to addition to the cells. At the end of the incubation period, 2.5 μl of AVP in stimulation buffer was added at the previously determined EC80 concentration.
# [2] = target: human Arginine Vasopressin Receptor 1a (AVPR1a) (Homo sapiens (Human), UniProt P37288); assay: Vasopressin V1A receptor antagonist assay (AVP-evoked calcium, FLIPR, CHO-AVPR1a cells); format: cell-based; settings: read-out: V1a IC50
# Summary of the method: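 CHO cells expressing human AVPR1a, Calcium-6 dye loaded 60-90 min, preincubated with compound 15 min at 37° C., then challenged with AVP at its daily-determined EC80. FLIPR fluorescence; 10-point 1:3 series from 3 μM, duplicates.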
# [3] = target: human Oxytocin Receptor (hOTR) (Homo sapiens (Human), UniProt P30559); assay: Oxytocin receptor antagonist assay (oxytocin-evoked calcium, FLIPR, CHEM-1-hOTR cells); format: cell-based; settings: read-out: OT IC50
# Summary of the method: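 Antagonist mode in CHEM-1-hOTR cells loaded with Calcium-6 dye; compounds (10-point, 1:3 series) preincubated 15 min at 37 °C, then oxytocin added at daily-determined EC80 in HBSS/20 mM HEPES with 0.1% BSA. Fluorescence (ex 470-495, em 515-575 nm) followed 3 min on FLIPR^TETRA; concentration-dependent reduction of oxytocin response measured.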
# MDR1 (P-gp) = assay: in vitro; settings: dog, MDCK-MDR1
# Chain of human Arginine Vasopressin Receptor V2 (AVPR2) (P30518 whole entry): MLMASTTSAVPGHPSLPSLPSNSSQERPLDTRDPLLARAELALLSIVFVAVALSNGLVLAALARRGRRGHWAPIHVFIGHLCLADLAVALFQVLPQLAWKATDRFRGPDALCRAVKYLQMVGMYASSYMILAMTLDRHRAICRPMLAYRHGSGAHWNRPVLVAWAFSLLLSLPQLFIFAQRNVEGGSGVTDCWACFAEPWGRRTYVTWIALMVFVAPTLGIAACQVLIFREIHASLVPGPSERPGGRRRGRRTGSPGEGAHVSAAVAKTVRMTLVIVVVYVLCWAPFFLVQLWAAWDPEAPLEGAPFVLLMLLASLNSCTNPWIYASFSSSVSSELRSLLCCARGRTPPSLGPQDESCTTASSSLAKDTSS
# Chain of human Oxytocin Receptor (hOTR) (P30559 whole entry): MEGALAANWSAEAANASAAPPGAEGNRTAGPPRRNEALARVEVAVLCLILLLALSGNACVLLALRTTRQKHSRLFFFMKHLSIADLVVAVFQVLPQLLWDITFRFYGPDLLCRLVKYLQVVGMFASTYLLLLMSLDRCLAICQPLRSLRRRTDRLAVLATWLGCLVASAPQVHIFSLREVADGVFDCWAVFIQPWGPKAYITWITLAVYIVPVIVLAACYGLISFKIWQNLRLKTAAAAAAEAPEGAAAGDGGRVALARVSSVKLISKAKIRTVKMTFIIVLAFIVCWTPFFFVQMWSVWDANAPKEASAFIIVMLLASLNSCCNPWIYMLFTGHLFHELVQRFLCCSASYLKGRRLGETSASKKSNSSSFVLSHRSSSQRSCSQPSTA
# Chain of human Arginine Vasopressin Receptor 1a (AVPR1a) (P37288 whole entry): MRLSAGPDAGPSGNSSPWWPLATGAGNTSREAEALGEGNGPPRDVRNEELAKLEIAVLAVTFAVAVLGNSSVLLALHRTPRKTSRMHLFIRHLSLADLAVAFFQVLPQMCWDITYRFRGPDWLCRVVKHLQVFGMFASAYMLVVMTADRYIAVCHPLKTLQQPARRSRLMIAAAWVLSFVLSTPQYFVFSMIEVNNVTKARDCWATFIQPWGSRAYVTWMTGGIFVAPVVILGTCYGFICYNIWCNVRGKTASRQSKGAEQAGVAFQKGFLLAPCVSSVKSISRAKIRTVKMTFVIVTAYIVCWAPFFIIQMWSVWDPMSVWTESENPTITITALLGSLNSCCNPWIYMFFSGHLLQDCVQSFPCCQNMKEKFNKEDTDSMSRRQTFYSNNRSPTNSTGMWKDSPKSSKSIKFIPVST
smiles,measurement,setting,value
"CC1(N2Cc3cc(Cl)ccc3-n3c(nnc3C3CC4(C3)CN(c3ccc(F)cn3)C4)C2)CC1 [Compound No. 255, 8-chloro-1-(2-(5-fluoropyridin-2-yl)-2-azaspiro[3.3]heptan-6-yl)-5-(1-methylcyclopropyl)-5,6-dihydro-4H-benzo[f][1,2,4]triazolo[4,3-a][1,4]diazepine]",pIC50,[1],6.30 to 7.00
same,pIC50,[2],> 7.00
same,pIC50,[3],< 6.00
same,Papp A→B at 2 h,MDR1 (P-gp),> 20 ×10⁻⁶ cm/s
Fc1ccc(N2CC3(CC(c4nnc5n4-c4ccc(Cl)cc4CN(C4CC4)C5)C3)C2)nc1 [compound 223],pIC50,[1],> 7.00
same,pIC50,[2],> 7.00
same,pIC50,[3],< 6.00
same,Papp A→B at 2 h,MDR1 (P-gp),> 20 ×10⁻⁶ cm/s
